Experiments:
LTA4 hydrolase [1] = conditions: literature; cited from earlier work
[2] = test system: collagen-induced arthritis model; conditions: J. Med. Chem., 37, 3197-3199 (1994); cited from earlier work
LTA4 hydrolase [3] = target: T1, LTA4 hydrolase (Cavia porcellus, UniProt P19602); assay: LTA4 hydrolase inhibition (LTB4 formed from LTA4, guinea pig lung enzyme preparation); assay type: biochemical; conditions: Table 2; guinea pig lung enzyme preparation; LTA4 63 μM; 37° C., one minute; pH 7.8; read-out: IC50 (concentration required to inhibit LTA4 hydrolase by 50%)
T1 construct: Lungs were excised from a Hartley guinea pig; from tissue; host or cells: Hartley guinea pig lung, 100,000×g supernatant, 40-70% ammonium sulfate fraction, dialyzed
T1 sequence (P19602 1-611): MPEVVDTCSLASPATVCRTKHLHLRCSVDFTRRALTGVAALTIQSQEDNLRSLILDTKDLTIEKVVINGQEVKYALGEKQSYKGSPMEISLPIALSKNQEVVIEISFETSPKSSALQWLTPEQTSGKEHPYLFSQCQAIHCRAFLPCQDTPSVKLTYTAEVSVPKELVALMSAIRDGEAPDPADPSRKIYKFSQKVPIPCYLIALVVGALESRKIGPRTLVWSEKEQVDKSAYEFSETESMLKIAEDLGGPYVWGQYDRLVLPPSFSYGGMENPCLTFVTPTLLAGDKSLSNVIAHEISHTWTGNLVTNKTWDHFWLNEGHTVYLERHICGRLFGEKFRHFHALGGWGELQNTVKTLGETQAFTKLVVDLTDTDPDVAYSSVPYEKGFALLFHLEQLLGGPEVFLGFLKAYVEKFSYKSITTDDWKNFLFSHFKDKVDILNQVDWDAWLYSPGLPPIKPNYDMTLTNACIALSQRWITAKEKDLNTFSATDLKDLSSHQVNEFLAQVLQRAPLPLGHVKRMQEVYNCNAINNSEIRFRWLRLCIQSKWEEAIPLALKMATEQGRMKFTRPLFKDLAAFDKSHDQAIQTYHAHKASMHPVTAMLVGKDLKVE
Method: Effects of the present compounds on LTA4 hydrolase were examined according to the method described in the literature.
Lungs were excised from a Hartley guinea pig (body weight: 330 g). The lungs were homogenized in phosphoric acid buffer (50 mM, pH 7.4, containing 1 mM ethylenediaminetetraacetic acid (EDTA) and 1 mM dithiothreitol (DTT) having weight three times that of the lungs under ice-cooling. The homogenate was centrifuged at low speed (800×g) for 20 minutes, centrifuged at high speed (10,000×g) for 20 minutes and ultracentrifuged (100,000×g) for 60 minutes to give a supernatant. The supernatant was brought to 40% saturation by adding a saturated aqueous ammonium sulfate solution (pH 7.0-7.2, containing 1 mM DTT) dropwise under ice-cooling and centrifuged at high speed (10,000×g) for 20 minutes. The resulting supernatant was brought to 70% saturation by adding a saturated aqueous ammonium sulfate solution (pH 7.0-7.2, containing 1 mM DTT) dropwise and centrifuged at high speed (10,000×g) for 20 minutes. The obtained pellet was dissolved in 2 ml of Tris-acetic acid buffer (20 mM, pH 7.8, containing 1 mM DTT) and dialyzed in 2 liters of the solution to give the enzyme preparation.
LTA4 used, which is the substrate, was prepared by hydrolyzing LTA4 methyl ester and dissolved in ethanol.
In order to examine effects of the present compounds on the enzyme preparation, reactions were performed under the following condition using mixed solutions consisting of the composition shown in Table 1.
HEPES buffer 50 mM, pH 7.8
Enzyme preparation 0.4-0.6 mg protein
Aqueous DTT solution 3 mM
The above-mentioned solution (50 μl ) was incubated at 37° C. for one minute. To the reaction mixture was added 100 μl of a mixed liquid of acetonitrile-ethanol-acetic acid (150:50:3, volume ratio) under ice-cooling. The mixture was allowed to stand at -20° C. for 30 minutes and centrifuged at high speed (10,000×g) for five minutes to give a supernatant. An amount of LTB4 produced in the supernatant was measured by high-speed liquid chromatography.
The degree of the inhibitory effect of each test compound on LTA4 hydrolase is expressed by the inhibition rate calculated by the following equation. [formula]
A: amount of LTB4 formed in the absence of the test compound
B: amount of LTB4 formed in the presence of the test compound
Experiments were carried out under the same conditions as those of the above-mentioned "Pharmacological Test".

IC50 (LTA4 hydrolase [3]) [nM] | Compound | inhibitory effect on LTA4 hydrolase (in words) (LTA4 hydrolase [1]) | onset of arthritis (in words) [2]
 | O=C(O)C1(c2ccc3c(c2)OC[C@H](Cc2ccc(-c4ccccc4)cc2)[C@H]3O)CCCC1 [(+)-1-(3S, 4R)-[3-(4-phenylbenzyl)-4-hydroxychroman-7-yl]cyclopentanecarboxylic acid] | inhibitory effect on LTA4 hydrolase | inhibited the onset of arthritis
 | O=C(O)c1cccc(C2CO2)c1 (centres unmarked) [3-oxiranylbenzoic acid] | inhibitory effects on LTA4 hydrolase | 
25 | CC(C)c1ccc(C(C)(C)SC[C@H](NC(=O)[C@H](C)CS)C(=O)O)cc1 [Compound No. 2-32, (2R)-2-[(2S)-3-Mercapto-2-methylpropionylamino]-3-[(α,α-dimethyl-4-isopropyl)benzylthio]propionic acid] |  | 
290 | C[C@H](CSC(=O)c1ccccc1)C(=O)N[C@@H](CSCc1ccc([N+](=O)[O-])cc1)C(=O)O [Compound No. 1-28, (2R)-2-[(2S)-3-(Benzoylthio)-2-methylpropionylamino]-3-(4-nitrobenzylthio)propionic acid] |  | 
